In patent US8410128B2, “Triazolopyridine compounds useful as kinase inhibitors” (Bristol-Myers Squibb Company, priority 2008, dated 2013):

Target: T1, p38 (Homo sapiens, UniProt Q16539)
T1 construct: GST (N); made in house; host or cells: E. coli
Assay: p38 Assay (33P-ATP/MBP filter kinase assay)
Format: biochemical
Conditions: bacterially expressed, activated p38 10 nM; ATP 1 μM; MBP substrate; 25° C., 45 min
Procedure: Generation of p38 Kinases
For this assay, cDNAs of human p38α, β, and γ isozymes were cloned by PCR. These cDNAs were subcloned in the pGEX expression vector (Pharmacia). GST-p38 fusion protein was expressed in E. Coli and purified from bacterial pellets by affinity chromatography using glutathione agarose. p38 fusion protein was activated by incubating with constitutively active MKK6. Active p38 was separated from MKK6 by affinity chromatography. Constitutively active MKK6 was generated according to Raingeaud et al. (Mol. Cell. Biol., 1247-1255 (1996)).
The assays were performed in V-bottomed 96-well plates. The final assay volume was 60 μl prepared from three 20 μl additions of enzyme, substrates (MBP and ATP) and test compounds in assay buffer (50 mM Tris pH 7.5, 10 mM MgCl2, 50 mM NaCl and 1 mM DTT). Bacterially expressed, activated p38 was pre-incubated with test compounds for 10 min. prior to initiation of reaction with substrates. The reaction was incubated at 25° C. for 45 min. and terminated by adding 5 μl of 0.5 M EDTA to each sample. […] The filtermat was then dried in a microwave oven for 1 min., treated with MELTILEX® A scintillation wax (Wallac), and counted on a MICROBETA® scintillation counter Model 1450 (Wallac). Inhibition data were analyzed by nonlinear least-squares regression using PRIZM® (GraphPadSoftware). […]

T1 sequence (Q16539 whole entry): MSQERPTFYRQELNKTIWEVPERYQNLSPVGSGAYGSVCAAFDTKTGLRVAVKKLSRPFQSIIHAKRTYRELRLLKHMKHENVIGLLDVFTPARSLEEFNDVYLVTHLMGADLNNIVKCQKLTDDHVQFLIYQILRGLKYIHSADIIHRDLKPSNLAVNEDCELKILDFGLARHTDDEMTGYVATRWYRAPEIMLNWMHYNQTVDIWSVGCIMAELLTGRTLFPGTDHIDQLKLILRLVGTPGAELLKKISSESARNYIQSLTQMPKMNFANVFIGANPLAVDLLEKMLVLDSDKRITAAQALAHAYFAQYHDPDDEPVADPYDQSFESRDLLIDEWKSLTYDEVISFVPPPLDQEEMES

IC50: 581 nM
Structure (SMILES): CC(C)Nc1ncc(-c2ccc3nncn3c2)s1 [Example 12]
